Reference: patent US5798350A, “Dopamine receptor ligands” (Allelix Biopharmaceuticals, Inc., priority 1996, dated 1998)

What was measured:
[1] = biological target: T1, human D4 receptor (D4.2 sub-type) (Homo sapiens, UniProt P21917, DEL265-296); assay: D4 receptor binding, displacement of 3H-spiperone; settings: for Ki: human D4 receptor, 3H-spiperone 0.25 nM
T1 construct: expressed in transfected cells; host or cells: HEK 298 (human embryonic kidney) cells, [sic]; homogenate of stably transfected cells
T1 sequence (P21917 with tags, fused parts or gaps DEL265-296): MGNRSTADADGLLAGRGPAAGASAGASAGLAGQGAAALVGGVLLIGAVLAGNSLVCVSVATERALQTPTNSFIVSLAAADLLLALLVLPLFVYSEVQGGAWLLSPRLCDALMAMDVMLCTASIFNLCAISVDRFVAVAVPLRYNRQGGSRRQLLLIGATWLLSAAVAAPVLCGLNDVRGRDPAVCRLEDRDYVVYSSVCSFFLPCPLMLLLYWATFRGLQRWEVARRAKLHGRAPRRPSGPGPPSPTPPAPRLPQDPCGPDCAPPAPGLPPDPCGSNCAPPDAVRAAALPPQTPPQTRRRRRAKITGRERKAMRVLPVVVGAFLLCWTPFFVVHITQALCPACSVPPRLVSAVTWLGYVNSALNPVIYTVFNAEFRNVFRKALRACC
Protocol: (§1) The potency of the test compound to reduce ^3 H-spiperone binding directly correlated to its binding affinity for the receptor.
The cells were then centrifuged in a Sorval centrifuge for 10 minutes, 5000 rpm (GS3 rotor) and the pellets quickly frozen in liquid nitrogen and stored at -80° C. until used in binding assay. When used in the assay, cells were thawed on ice for 20 minutes and then 10 mL of incubation buffer (50 mM Tris, 1 mM EDTA, 4 mM MgCl2, 5 mM KCl, 1.5 mM CaCl2, 120 mM NaCl, pH7.4) was added. […] Concentration of receptor protein was determined using the Pierce BCA assay.
(§2) Total Spiperone Binding Assay
(§3) The tubes were vortexed and incubated at room temperature for 90 minutes. The binding reaction was stopped by filtering using a Brandell Cell Harvester. The samples were filtered under vacuum over glass fibre filters (Whatman GF/B) presoaked for 2 hours in 0.3% polyethyleneimine (PEI) in 50 mM Tris buffer (pH7.4). The filters were then washed 3 times with 5 mL ice cold 50 mM Tris buffer (pH7.4). Individual filter disks were put in scintillation vials (Biovials, Bechman). Ready Protein Plus liquid scintillant (5 mL, Beckman) was added and the vials counted by liquid scintillation spectrophotometry (Beckman LSC 6500) after equilibrating for three hours at room temperature to determine total binding (BT).
Non-Specific Binding Assay for D4
The tubes were vortexed and incubated at room temperature for 90 minutes at which time the binding reaction was stopped by filtering. The filters were washed and counted using the same procedure as in the total binding assay described above to give the non-specific binding value (NSB).
(§4) Displacement Binding Assay
(§5) The incubation was started by the addition to 12×75 mm polypropylene tubes 500 μl (50 μg protein) membrane homogenate to a solution of 400 μl incubation buffer, 100 μl (0.25 final conc.) ^3 H-spiperone (90Ci/mmol, Amersham, diluted in borosilicate glass vial to) and […] of test compound that was prepared from 1 mM stock dissolved in DMSO and stored at -20° C. in polypropylene cryogenic storage vials until dilution in incubation buffer in borosilicate glass vials. The tubes were vortexed and incubated at room temperature for 90 minutes at which time the binding reaction was stopped by filtering. The filters were washed and counted using the same procedure as in the total binding assay described above to give the displacement binding value (BD).
IC50 was determined from an inhibition response curve, logit-log plot of %B/BO vs concentration of test compound.
(§6) Ki was calculated by the Cheng and Prustoff transformation: […]
(§7) where [L] is the concentration of ^3 H-spiperone used in the assay and KD is the to dissociation constant of ^3 H-spiperone determined independently under the same binding conditions.

[2] = biological target: T2, human D2 receptor (short isoform) (Homo sapiens, UniProt P14416); assay: D2 receptor binding, displacement of 3H-spiperone (GH4C1 cells), for D2/D4 selectivity; settings: for D2/D4: D4 selectivity, ratio D2/D4
T2 construct: membrane homogenate, 3H-spiperone displacement
T2 sequence (P14416 with tags, fused parts or gaps DEL242-270): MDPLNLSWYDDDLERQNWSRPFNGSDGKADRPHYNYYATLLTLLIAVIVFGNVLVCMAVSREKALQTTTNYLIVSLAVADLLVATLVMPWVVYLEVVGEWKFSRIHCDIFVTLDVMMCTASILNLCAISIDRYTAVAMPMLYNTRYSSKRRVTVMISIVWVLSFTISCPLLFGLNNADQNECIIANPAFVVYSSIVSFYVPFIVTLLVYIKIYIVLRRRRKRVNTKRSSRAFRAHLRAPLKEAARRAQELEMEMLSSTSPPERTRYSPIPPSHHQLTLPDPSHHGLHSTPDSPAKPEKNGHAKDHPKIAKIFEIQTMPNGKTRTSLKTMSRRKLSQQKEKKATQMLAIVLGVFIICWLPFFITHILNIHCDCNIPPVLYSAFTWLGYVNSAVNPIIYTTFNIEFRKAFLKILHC
Protocol: as §1
GH4 C1 (rat pituitary) cells stably transfected with the human D2 receptor (short isoform) were grown in CO2 independent media in roller bottles (1500 cm^2) for 10 days. 100 μM ZnSO4 was added to the cells (the D2 promoter being zinc inducible). After 16 hours, fresh media was added to allow the cells to recover for 24 hours. The cells were harvested using versene and then centrifuged in a Sorval centrifuge for 10 minutes, at 5000 rpm (GS3 rotor). Pellets were quickly frozen in liquid nitrogen and stored at -80° C. until used in the binding assays. When used in the assay, cells were thawed on ice for 20 minutes. […] 10 mL of incubation buffer was added to the pellets which were then vortexed, resuspended and homogenized with a Kinematica CH-6010 Kriens-LU homogenizer for 15 seconds at setting 7. The receptor protein concentration was determined using the Pierce BCA assay.
as §2
as §3, with “The incubation was started by the addition of 500 μl (50 μg protein) membrane homogenate to a solution of 900 μl incubation buffer and 100 μl (0.25 nM final conc.) ^3 H-spiperone (90 Ci/mmol Amersham diluted in borosilicate glass vial) in 12×75 mm polypropylene tubes. The tubes” for “The tubes”
Non-Specific Binding Assay for D2
This assay employed the same procedures as the non-specific binding assay for D4 with the exception that 2 μM (final conc.) of (-) sulpiride (Research Chemicals Inc.) was used in place of dopamine.
as §4, §5
Specific binding in the absence of test compound (BO) was the difference of total binding (BT) minus non-specific binding (NSB) and similarly specific binding (in the presence of test compound) (B) was the difference of displacement binding (BD) minus non-specific binding (NSB). IC50 was determined from an inhibition response curve, logit-log plot of %B/BO vs concentration of test compound.
as §6, §7

[3] = compared with corresponding 4-methyl piperazine compound

Row | SMILES | Ki [1] | D2/D4 [2] | D4 selectivity ([2]; compared with clozapine) | D4 affinity ([1]; compared with clozapine) | D4 affinity and selectivity ([1]; compared with clozapine) | D4 affinity and selectivity ([1]; compared with clozapine and the corresponding 4-methyl compound) | D4 affinity and selectivity [1, 3] | D4 selectivity [2, 3]
1 | Clc1ccc2c(c1)C=C(N1CCN(Cc3ccc4c(c3)OCO4)CC1)c1ccccc1S2 [2-chloro-10-(4-piperonyl-1-piperazinyl)dibenzo[b,f]thiepine] | 8.3 nM | 15.9 | better D4 selectivity than clozapine |  |  |  |  | 
2 | Clc1ccc2c(c1)Nc1ccccc1N=C2N1CCN(Cc2ccc3c(c2)OCO3)CC1 [3-chloro-11-(4-piperonyl-1-piperazinyl)-5H-dibenzo[b,e][1,4]diazepine] | 23.5 nM | 24.9 | better D4 selectivity than clozapine |  |  |  |  | 
3 | Clc1ccc2c(c1)N=C(N1CCN(Cc3ccc4c(c3)OCO4)CC1)c1ccccc1O2 [8-chloro-11-(4-piperonyl)-1-piperazinyl)dibenz[b,f][1,4]oxazepine] | 4 nM | 23.8 | better D4 selectivity than clozapine | better D4 affinity than clozapine | better D4 affinity and selectivity than clozapine | better than clozapine and the corresponding 4-methyl compound | better D4 affinity and selectivity than the corresponding 4-methyl piperazine compound | better D4selectivity than the corresponding 4-methyl piperazine compound
4 | c1ccc2c(c1)N=C(N1CCN(Cc3ccc4c(c3)OCO4)CC1)c1ccccc1O2 [11-(4-piperonyl)-1-piperazinyl)-dibenz[b,f][1,4]oxazepine] | 30 nM | 32.7 | better D4 selectivity than clozapine |  |  |  | better D4 affinity and selectivity than the corresponding 4-methyl piperazine compound | better D4selectivity than the corresponding 4-methyl piperazine compound
